Laboratory results as given in patent US20260069581A1, “METHODS AND COMPOSITIONS FOR CANCER THERAPY” (OHIO STATE INNOVATION FOUNDATION, priority 2020, published 2026).

What was measured:
[1] = In vivo MOLM13 xenograft study, toxicities and weight; design: species or system NCG mice; settings: over the course of the study (FIG. 11B)
Text: FIG. 11A show H&E images of tissues obtained from MOLM13 xenograft mice that with the magnification and treatments as indicated in the figure. The images were representative of 3 different fields. […] FIG. 11B show weight change data of MOLM13 xenograft mice in response to different treatments.
In vivo MOLM13 xenograft study. All experiments were approved by the OSU Institutional Animal Care and Use Committee. Male NOD-Prkdc^em26cd52Il2rg^em26cd22/NjuCrl (NCG) mice (RRID:IMSR_CRL:572) (aged 6-8 weeks) were obtained from Charles River Laboratory. Mice were group-housed under conditions of constant photoperiod (12-hour light/12-hour dark), temperature, and humidity with adlibitum access to water and irradiated standard pelleted chow. […] luciferase-tagged MOLM13 cells were injected via tail vein into NCG mice. On day 5 post-engraftment, mice were randomized to receive placebo (vehicle; Karyopharm Therapeutics) once daily, 100 mg/kg of KPT-9274 (Karyopharm Therapeutics) once daily, 20 mg/kg AR-42 every another day and the combination of KPT-9274 and AR-42 via oral gavage. Overall survival was the primary end point for the majority of the mice. […] Mice were monitored by animal technicians who were blinded to the treatment groups and determined when mice met early removal criteria (20% weight loss, lethargy, hunching, and poor body condition). […]

leukemia stem cells = settings: caspase-dependent apoptosis, Ref. 28; cited from earlier work
Kasumi-1 cells = assay: MTS cell viability of shRNA-stable Kasumi-1 cells treated with KPT-9274; assay type: cell-based; settings: Kasumi-1 scrambled control, 24 hour KPT-9274 treatment
Text: FIGS. 2A-2M show show representative data for genetic depletion of HDAC8 or SIRT6 increases vulnerability of AML cell lines to KPT-9274 treatment. FIGS. 2A-2D show data for knockout efficiency of CDS- and 3′UTR-targeting shRNAs in MOLM13 and Kasumi-1 cells as assessed with Western blotting (FIGS. 2A, 2D) with GAPDH as a loading control. Densitometric quantification of protein band intensity is shown (n=2) in FIGS. 2B, 2E. FIGS. 2E-2H show representative data for depletion of HDAC8 or SIRT6 (as indicated in graphs) and sensitization of AML cell lines to KPT-9274 treatment. Dose-response curves of shRNA-stable MOLM13 and Kasumi-1 cells for 24-hour and 48-hour treatments are plotted. Cell viability was measured with MTS. […] Scrambled or gene-targeting shRNA-stable MOLM13 or Kasumi-1 cells were treated with IC20 dose of KPT-9274 for 48 hour and stained with Annexin/PI for flow cytometry analysis. Data are shown as mean±SEM of % population from duplicates. […] Quantification of the number of colonies formed by shRNA-stable Kasumi-1 and MOLM13 cells in the presence or absence of KPT-9274 in CFU assays. Indicated number of cells were seeded into Methocult and colonies were counted and replated by a double-blind approach after 7 days. […]
MTS assay. […] Plates were read by using a BioTek synergy H4 hybrid multimode microplate reader (Thermo Fisher Scientific) at 490 nM. […]

[2] = test system: shRNA-stable Kasumi-1 and MOLM13 cells; assay: CFU serial replating assay of shRNA-stable cells with KPT-9274; assay type: cell-based, human
Text: FIGS. 2A-2M show show representative data for genetic depletion of HDAC8 or SIRT6 increases vulnerability of AML cell lines to KPT-9274 treatment. FIGS. 2A-2D show data for knockout efficiency of CDS- and 3′UTR-targeting shRNAs in MOLM13 and Kasumi-1 cells as assessed with Western blotting (FIGS. 2A, 2D) with GAPDH as a loading control. Densitometric quantification of protein band intensity is shown (n=2) in FIGS. 2B, 2E. FIGS. 2E-2H show representative data for depletion of HDAC8 or SIRT6 (as indicated in graphs) and sensitization of AML cell lines to KPT-9274 treatment. Dose-response curves of shRNA-stable MOLM13 and Kasumi-1 cells for 24-hour and 48-hour treatments are plotted. Cell viability was measured with MTS. […] Scrambled or gene-targeting shRNA-stable MOLM13 or Kasumi-1 cells were treated with IC20 dose of KPT-9274 for 48 hour and stained with Annexin/PI for flow cytometry analysis. Data are shown as mean±SEM of % population from duplicates. FIGS. 2K-2L show representative data that KPT-9274 attenuates AML self-renewal and induces myeloid differentiation in HDAC8 or SIRT6-depleted cells. Quantification of the number of colonies formed by shRNA-stable Kasumi-1 and MOLM13 cells in the presence or absence of KPT-9274 in CFU assays. Indicated number of cells were seeded into Methocult and colonies were counted and replated by a double-blind approach after 7 days. Results are shown as mean±SEM of duplicates. *p<0.05. **p<0.01. […] For each condition, images were randomly taken from 6-12 fields of view. Scale bar=50 μm.
Colony-forming unit (CFU) assays. Age-matched cryopreserved primary cells from bone marrow and apheresis of AML patients with various co-mutations and CD34^+ healthy bone marrow cells were acquired from Ohio State University Comprehensive Cancer Center Leukemia Tissue Bank. […] Formed colonies were counted blindly after 7-14 days and re-plated at 10,000 cells/well. The images of colonies were captured with Echo revolving microscope. The images of Giemsa staining of cytospin preparations were acquired by CX43 Olympus inverted microscope. […]

[3] = Phase I trial; cited from earlier work

| Structure (SMILES) | weight loss [1] | death of leukemia stem cells (leukemia stem cells) | IC50 (Kasumi-1 cells) | colony formation and long-term self-renewal ([2]; HDAC8 or SIRT6-depleted MOLM13 and Kasumi-1 cells) | cell differentiation (Giemsa staining of cytospin preparations) ([2]; KPT-9274 with depletion of HDAC8 or SIRT6, cells derived from CFU assays) | colony numbers vs vehicle control ([2]; scramble groups, sublethal doses of KPT-9274) | drug-related adverse events [3] | tolerability vs 1st generation NAMPTi [3] |
| --- | --- | --- | --- | --- | --- | --- | --- | --- |
| CC(C)[C@H](C(=O)Nc1ccc(C(=O)NO)cc1)c1ccccc1 [AR-42, (S)—N-Hydroxy-4-(3-methyl-2-phenylbutanamido)benzamide] | did not observe any noticeable weight loss | induce death of leukemia stem cells | – | – | – | – | – | – |
| Nc1ccc(/C=C/C(=O)NCc2cc3cc(-c4ccc(C(=O)N5CCC(F)(F)CC5)cc4)cc(-c4ccc(F)cc4)c3o2)cn1 [KPT-9274, (E)-3-(6-aminopyridin-3-yl)-N-[[5-[4-(4,4-difluoropiperidine-1-carbonyl)phenyl]-7-(4-fluorophenyl)-1-benzofuran-2-yl]methyl]prop-2-enamide] | – | – | did not achieve IC50 | suppressed colony formation | cooperatively differentiated AML cells | comparable | anemia and fatigue | better tolerated |
